Patent publication US20170340693A1, “DISLODGEMENT AND RELEASE OF HSC USING ALPHA 9 INTEGRIN ANTAGONIST AND CXCR4 ANTAGONIST” (COMMONWEALTH SCIENTIFIC AND INDUSTRIAL RESEARCH ORGANISATION, priority 2014, published 2017)

Experiments:
[1] = system: HSC and progenitors isolated from human BM; test: R-BC154 (IXb) binding to human BM cells; assay type: cell-based; settings: Ca2+/Mg2+
Method: (§1) For the assessment of α9β1 contribution to R-BC154 (IXb) binding, human and murine cells were stained with R-BC154 (100 nM) in the absence of competing antagonist or in the presence of excess amounts of the selective α4β1 antagonist BIO5192 (1 μM) or dual α4β1/α9β1 antagonist BOP (1 μM) in PBS containing 0.5% BSA and 1 mM CaCl2MgCl2 at 0° C. for 30 min. Cells were washed, immunolabelled as described above and analysed by flow cytometry. The contribution of α9β1 binding was calculated by measuring the difference in MFI between R-BC154 (IXb)+BIO5192 and +BOP and expressed as a % of R-BC154 (IXb) alone.

[2] = system: murine BM progenitors (LSK) and HSC (LSKSLAM); test: In vitro R-BC154 (IXb) binding to murine central and endosteal BM cells; assay type: cell-based, mice
Description: Populations of endosteal and central murine bone marrow cells were isolated as previously described in J. Grassinger, et al Cytokine, 2012, 58, 218-225 and D. N. Haylock et al Stem Cells, 2007, 25, 1062-1069. Briefly, one femur, tibia and iliac bone were excised and cleaned of muscle. After removing the epi- and metaphyseal regions, bones were flushed with PBS-2% FBS to obtain central bone marrow cells. Flushed long bones and epi- and metaphyseal fragments were pooled and crushed using a mortar and pestle. Bone fragments were digested with Collagenase I (3 mg/ml) and Dispase II (4 mg/ml) at 37° C. in an orbital shaker at 750 rpm. After 5 min, bone fragments were washed once with PBS and once with PBS 2% FBS to collect the endosteal bone marrow cells. Peripheral blood was collected by retro-orbital puncture and red blood cells were lysed using NH4Cl lysis buffer for 5 min at room temperature. Isolated cell populations were washed with PBS 2% FBS and then stained for flow cytometry as described in Antibody Cocktails above.
(§2) For in vitro labelling experiments, 5×10^6 BM cells from C57 mice, conditional α4^−/−/α9^−/− mice and humanised NODSCIDIL2Rγ^−/− mice and human cord blood MNCs were treated with R-BC154 (IXb) (up to 300 nM) in PBS (0.5% BSA) or TBS (0.5% BSA) containing either 1 mM CaCl2/MgCl2 (activating) or 10 mM EDTA (deactivating) at 40×10^6 cells/ml for 20 mins at 4° C. Cells were washed with cold PBS (2% FBS) and then immunolabelled as described in “Antibody Cocktails” prior to flow cytometric analysis. For in vivo experiments, C57BL/6 mice, α4^−/−/α9^−/− vav-cre mice and humanised NODSCIDIL2Rγ^−/− mice received either intravenous or subcutaneous injections of R-BC154 (IXb) (5-10 mg/kg) at 100 ul/10 gm mouse weight and analysed as described above.
To determine whether integrin activation is required for binding to both central and endosteal BM progenitors (Lin^−Sca-1^+ckit^+ cells; LSK) and HSC (LSKCD150^+CD48^− cells; LSKSLAM) (FIG. 3a), R-BC154 (IXb) binding was assessed in the presence of 1 mM Ca^2+/Mg^2+ (FIG. 3b).

[3] = system: cord blood (CB) mononuclear cells (MNC); test: R-BC154 (IXb) binding to cord blood mononuclear cell populations, flow cytometry; assay type: cell-based, human; settings: 1 mM Ca2+/Mg2+
Method: as §2, §1

α4β1 integrin = α4β1 integrin (Homo sapiens, UniProt P05556+P13612); test: In vitro (saturation) binding of R-BC154; design: expressed in transfected cells; host or cells: LN18 (ATCC CRL-2610), retrovirally transduced; settings: in vitro binding data
Chain of α4β1 integrin (P13612 34-1032): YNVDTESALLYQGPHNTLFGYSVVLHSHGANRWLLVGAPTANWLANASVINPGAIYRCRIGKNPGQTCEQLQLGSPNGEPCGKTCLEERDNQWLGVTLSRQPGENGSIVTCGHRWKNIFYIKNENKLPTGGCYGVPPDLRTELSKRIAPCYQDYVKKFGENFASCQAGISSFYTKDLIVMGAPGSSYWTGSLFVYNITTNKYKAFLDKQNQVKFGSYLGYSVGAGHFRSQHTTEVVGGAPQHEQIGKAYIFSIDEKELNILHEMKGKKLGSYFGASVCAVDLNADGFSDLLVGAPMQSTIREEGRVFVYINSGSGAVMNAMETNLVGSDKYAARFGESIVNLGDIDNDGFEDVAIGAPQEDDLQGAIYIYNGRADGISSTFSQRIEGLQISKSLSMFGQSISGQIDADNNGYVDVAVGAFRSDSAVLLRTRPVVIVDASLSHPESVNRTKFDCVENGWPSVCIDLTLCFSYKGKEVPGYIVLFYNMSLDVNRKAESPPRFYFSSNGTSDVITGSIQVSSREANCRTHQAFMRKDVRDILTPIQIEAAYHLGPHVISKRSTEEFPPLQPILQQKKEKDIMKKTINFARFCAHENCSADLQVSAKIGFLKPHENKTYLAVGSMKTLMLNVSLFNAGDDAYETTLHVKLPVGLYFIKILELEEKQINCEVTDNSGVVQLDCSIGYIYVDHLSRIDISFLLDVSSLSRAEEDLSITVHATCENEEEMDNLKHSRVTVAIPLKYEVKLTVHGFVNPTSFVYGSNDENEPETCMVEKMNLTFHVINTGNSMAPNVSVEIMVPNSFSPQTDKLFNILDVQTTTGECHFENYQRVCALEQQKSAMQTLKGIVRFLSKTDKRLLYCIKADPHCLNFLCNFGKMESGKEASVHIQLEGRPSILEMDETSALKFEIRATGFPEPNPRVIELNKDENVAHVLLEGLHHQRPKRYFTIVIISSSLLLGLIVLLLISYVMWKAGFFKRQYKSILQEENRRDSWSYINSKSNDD
Chain of α4β1 integrin (P05556 21-798): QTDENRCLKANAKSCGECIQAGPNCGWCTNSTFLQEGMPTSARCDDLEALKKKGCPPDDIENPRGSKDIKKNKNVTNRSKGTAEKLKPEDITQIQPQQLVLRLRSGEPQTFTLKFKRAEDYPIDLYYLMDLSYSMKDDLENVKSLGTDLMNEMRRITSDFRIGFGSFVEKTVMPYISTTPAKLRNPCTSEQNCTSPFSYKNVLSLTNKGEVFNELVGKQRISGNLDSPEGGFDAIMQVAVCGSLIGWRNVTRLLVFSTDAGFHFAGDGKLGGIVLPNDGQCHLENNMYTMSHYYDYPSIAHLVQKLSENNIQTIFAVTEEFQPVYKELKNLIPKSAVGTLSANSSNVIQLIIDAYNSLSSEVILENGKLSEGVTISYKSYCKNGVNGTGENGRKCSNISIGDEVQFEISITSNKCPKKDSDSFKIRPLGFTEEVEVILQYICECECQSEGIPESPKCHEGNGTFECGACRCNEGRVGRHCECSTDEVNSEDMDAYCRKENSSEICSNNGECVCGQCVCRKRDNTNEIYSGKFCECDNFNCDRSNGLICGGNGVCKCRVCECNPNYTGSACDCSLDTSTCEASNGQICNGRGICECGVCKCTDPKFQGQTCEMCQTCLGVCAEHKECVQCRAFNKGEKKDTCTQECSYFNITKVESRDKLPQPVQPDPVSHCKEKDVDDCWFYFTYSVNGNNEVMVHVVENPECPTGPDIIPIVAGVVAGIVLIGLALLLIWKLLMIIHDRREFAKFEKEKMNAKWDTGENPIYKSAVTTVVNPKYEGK
Method: Cultured α4β1, α9β1 and control LN18 cells (0.5×10^6 cells) were treated with 100 μl of compound (R-BC154) at 0, 1, 3, 10, 30 and 100 nM in TBS-2% FBS (containing either no cations, 1 mM CaCl2—MgCl2 or 1 mM MnCl2). The cells were incubated at 37° C. for 60 min, washed once with TBS-2% FBS, dry pelleted and resuspended in the relevant binding buffer for flow cytometric analysis. Mean channel fluorescence was plotted against concentration and fitted to a one-site saturation ligand binding curve using GraphPad Prism 6. The dissociation constant, Kd was determined from the curves.

[4] = system: progenitors (LSK) and HSC (LSKSLAM) in peripheral blood; test: HSC mobilization to peripheral blood in mice; assay type: in vivo; settings: single agent, single dose
Method: For mobilization experiments, all mice received subcutaneous injections at 100 μl/10 gm body weight and PB was harvested by throat bleed using EDTA coated syringes.
(a) R-BC154 (IXb) and BOP. Mice received a single injection of freshly prepared solutions of R-BC154 (IXb) and BOP in saline at the doses indicated before PB was harvested by throat bleed at the times indicated.
(b) G-CSF. Mice received G-CSF at 250 μg/kg twice daily (500 ug/kg/day), 6-8 hours apart for 4 consecutive days. Groups receiving G-CSF and BOP received the standard G-CSF regime as described above followed by a single injection of BOP 1 h prior to harvest. Control mice received an equal volume of saline.
Mice received subcutaneous injections at 100 μl/10 gm body weight of a single injection of BOP (up to 15 mg/kg) for various timeframes, a single BIO5192 injection at 1 mg/kg for 1 hour, a single AMD3100 injection at 3 mg/kg for 1 hour (mice also receiving BOP or BIO15192 were injected with a single dose of BOP or BIO15192 1 hour prior to harvest), or G-CSF at 250 μg/kg twice daily (500 μg/kg/day), 6-8 hours apart for 4 consecutive days (mice also receiving BOP and/or AMD3100 were injected with a single dose of BOP and/or AMD3100 1 h prior to harvest). Control mice received an equivalent volume of saline or 10% HPβCD/saline where appropriate.

CCN(CC)c1ccc2c(-c3ccc(S(=O)(=O)NCc4cn(C5C[C@@H](C(=O)N[C@@H](Cc6ccc(OC(=O)N7CCCC7)cc6)C(=O)O)N(S(=O)(=O)c6ccccc6)C5)nn4)cc3S(=O)(=O)[O-])c3ccc(=[N+](CC)CC)cc-3oc2c1 (stereo partly shown) [R-BC154 (IXb)]
binding to HSC and progenitors isolated from human BM [1]: efficiently bound | binding to central versus endosteal LSK and LSKSLAM ([2]; 1 mM Ca2+/Mg2+): greater binding to central LSK and LSKSLAM was observed relative to their endosteal counterparts | binding to α4−/−/α9−/− LSK and LSKSLAM cells ([2]; BM of α4flox/flox α9flox/flox vav-cre mice): essentially absent | binding to HSC and progenitors on co-treatment with EDTA ([2]; EDTA (deactivating)): completely abolished activity | binding to endosteal and central LSK ([2]; absence of both activating cations and EDTA): binding to endosteal LSK cells was still evident but not to central LSK | binding to lineage committed lymphoid and myeloid cells relative to LSKSLAM and LSK ([2]; exogenous activation): significantly lower relative to LSKSLAM | binding to CB HSC (CD34+CD38−) and progenitors (CD34+CD38+) [3]: high | binding to CB lineage committed cells (CD34−CD38+) [3]: modest | affinity for α4β1 integrin (α4β1 integrin): high affinity | increase in PB progenitors (LSK) and HSC (LSKSLAM) [4]: moderate increases
